Data: ChEMBL document CHEMBL1143695, “Synthesis and biological studies of novel 2-aminoalkylethers as potential antiarrhythmic agents for the conversion of atrial fibrillation” (J Med Chem, 2007)
Activity calls are given as the source filed them. No cut-off for these calls is given here.

Experiments:
[1] = tested on: Rattus norvegicus; assay: CNS toxicity in iv dosed Sprague-Dawley rat assessed as cumulative convulsion dose; assay type: organism-based; conditions: in vivo
[2] = species on record: Canis familiaris; assay: Reduction of heart rate in Mongrel dog vagal atrial fibrillation model; assay type: functional, organism-based; conditions: Canis lupus familiaris
[3] = molecular target: T1, A-type voltage-gated potassium channel KCND2 (Rattus norvegicus, UniProt Q63881); assay: Inhibition of rat potassium channel Kv4.2 by patch-clamp method
T1 sequence (Q63881 whole entry): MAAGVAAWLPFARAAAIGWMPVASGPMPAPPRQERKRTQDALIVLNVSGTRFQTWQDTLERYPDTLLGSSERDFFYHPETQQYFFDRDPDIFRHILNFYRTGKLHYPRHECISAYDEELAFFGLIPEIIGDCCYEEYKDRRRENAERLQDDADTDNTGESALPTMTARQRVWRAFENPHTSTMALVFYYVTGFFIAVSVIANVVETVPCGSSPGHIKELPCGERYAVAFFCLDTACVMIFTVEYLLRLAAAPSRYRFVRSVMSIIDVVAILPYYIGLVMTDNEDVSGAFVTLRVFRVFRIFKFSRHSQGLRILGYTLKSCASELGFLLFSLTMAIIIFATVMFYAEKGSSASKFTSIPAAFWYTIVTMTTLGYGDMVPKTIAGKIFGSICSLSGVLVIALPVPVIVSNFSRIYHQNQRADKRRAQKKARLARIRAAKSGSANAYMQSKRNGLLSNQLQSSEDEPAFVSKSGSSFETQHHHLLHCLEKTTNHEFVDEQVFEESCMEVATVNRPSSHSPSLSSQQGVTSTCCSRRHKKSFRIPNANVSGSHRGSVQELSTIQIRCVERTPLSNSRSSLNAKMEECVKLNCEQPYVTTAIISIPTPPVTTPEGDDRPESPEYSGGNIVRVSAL

[4] = molecular target: Potassium voltage-gated channel subfamily A member 5 (Homo sapiens, UniProt P22460); assay: Inhibition of human potassium channel Kv1.5 by patch-clamp method
Potassium voltage-gated channel subfamily A member 5, sequence (P22460 whole entry): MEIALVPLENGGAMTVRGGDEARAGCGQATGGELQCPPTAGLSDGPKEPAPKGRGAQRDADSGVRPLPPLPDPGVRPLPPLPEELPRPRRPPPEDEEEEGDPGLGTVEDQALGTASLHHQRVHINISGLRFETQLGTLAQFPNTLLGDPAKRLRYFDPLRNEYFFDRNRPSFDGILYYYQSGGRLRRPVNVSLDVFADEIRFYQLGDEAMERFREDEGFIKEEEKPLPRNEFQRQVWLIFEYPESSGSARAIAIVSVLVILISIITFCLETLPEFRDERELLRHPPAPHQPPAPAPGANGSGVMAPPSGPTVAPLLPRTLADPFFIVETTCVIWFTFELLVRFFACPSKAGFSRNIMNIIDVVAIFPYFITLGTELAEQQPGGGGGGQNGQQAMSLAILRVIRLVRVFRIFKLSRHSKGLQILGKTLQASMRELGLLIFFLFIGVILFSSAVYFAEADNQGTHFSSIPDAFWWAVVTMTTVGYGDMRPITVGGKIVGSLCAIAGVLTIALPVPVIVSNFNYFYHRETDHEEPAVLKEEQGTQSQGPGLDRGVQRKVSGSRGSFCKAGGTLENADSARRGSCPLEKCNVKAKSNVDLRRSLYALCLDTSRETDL

[5] = Half life in Wistar rat at 12 mg/kg. iv; assay type: ADME, organism-based; set-up: dose 12 mg/kg, route intravenous; conditions: in vivo
[6] = species on record: Canis familiaris; assay: Reduction of blood pressure in Mongrel dog vagal atrial fibrillation model; assay type: functional, organism-based; conditions: Canis lupus familiaris
[7] = species on record: Canis familiaris; assay: Effect on Mongrel dog sterile pericarditis atrial fibrillation model assessed as conversion of atrial fibrillation to normal sinus rhythm; assay type: functional, organism-based; conditions: Canis lupus familiaris; Cardiac atrium
[8] = tested on: Rattus norvegicus; assay: Antiarrhythmic activity in intravenously dosed Sprague-Dawley rat with ischemia-induced arrhythmia; assay type: functional, Heart
[9] = Oral bioavailability in Wistar rat at 24 mg/kg. […]; assay type: ADME, organism-based; conditions: in vivo
[10] = molecular target: T2, Potassium voltage-gated channel subfamily B member 1 (Rattus norvegicus, UniProt P15387); assay: Inhibition of rat potassium channel Kv2.1 by patch-clamp method
T2 sequence (P15387 whole entry): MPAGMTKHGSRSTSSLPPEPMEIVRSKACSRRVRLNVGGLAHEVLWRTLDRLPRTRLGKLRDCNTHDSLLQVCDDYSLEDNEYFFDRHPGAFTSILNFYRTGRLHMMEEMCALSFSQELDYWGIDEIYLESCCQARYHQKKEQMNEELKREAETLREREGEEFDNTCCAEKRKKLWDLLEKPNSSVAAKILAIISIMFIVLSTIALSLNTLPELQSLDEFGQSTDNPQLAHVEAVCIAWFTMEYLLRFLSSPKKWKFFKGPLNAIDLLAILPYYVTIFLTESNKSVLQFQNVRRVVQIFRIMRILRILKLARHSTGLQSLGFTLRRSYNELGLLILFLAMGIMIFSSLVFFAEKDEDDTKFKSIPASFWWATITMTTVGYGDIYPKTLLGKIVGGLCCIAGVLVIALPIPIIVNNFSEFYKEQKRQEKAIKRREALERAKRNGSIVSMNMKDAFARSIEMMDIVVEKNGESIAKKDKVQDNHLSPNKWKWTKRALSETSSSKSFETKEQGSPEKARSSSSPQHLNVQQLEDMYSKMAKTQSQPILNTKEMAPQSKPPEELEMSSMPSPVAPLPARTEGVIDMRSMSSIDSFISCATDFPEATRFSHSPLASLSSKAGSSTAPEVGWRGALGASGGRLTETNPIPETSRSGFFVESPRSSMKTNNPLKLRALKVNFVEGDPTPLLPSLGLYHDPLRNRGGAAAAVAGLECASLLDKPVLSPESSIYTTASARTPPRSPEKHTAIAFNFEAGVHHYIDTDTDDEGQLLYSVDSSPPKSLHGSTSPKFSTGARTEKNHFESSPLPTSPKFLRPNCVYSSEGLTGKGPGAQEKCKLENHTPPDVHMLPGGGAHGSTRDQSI

[11] = species on record: Canis familiaris; assay: Effect on Mongrel dog sterile pericarditis atrial fibrillation model assessed as dose for conversion of atrial fibrillation to normal sinus rhythm; assay type: functional, Canis lupus familiaris, Cardiac atrium
[12] = Clearance in Wistar rat at 12 mg/kg. iv; assay type: ADME, organism-based; set-up: dose 12 mg/kg, route intravenous; conditions: in vivo
[13] = in vivo; conditions: CD1, mouse, iv
Description: Toxicity in intravenously dosed CD1 mouse

[14] = molecular target: Sodium channel protein type 5 subunit alpha (Homo sapiens, UniProt Q14524)
Sodium channel protein type 5 subunit alpha, sequence (Q14524 whole entry): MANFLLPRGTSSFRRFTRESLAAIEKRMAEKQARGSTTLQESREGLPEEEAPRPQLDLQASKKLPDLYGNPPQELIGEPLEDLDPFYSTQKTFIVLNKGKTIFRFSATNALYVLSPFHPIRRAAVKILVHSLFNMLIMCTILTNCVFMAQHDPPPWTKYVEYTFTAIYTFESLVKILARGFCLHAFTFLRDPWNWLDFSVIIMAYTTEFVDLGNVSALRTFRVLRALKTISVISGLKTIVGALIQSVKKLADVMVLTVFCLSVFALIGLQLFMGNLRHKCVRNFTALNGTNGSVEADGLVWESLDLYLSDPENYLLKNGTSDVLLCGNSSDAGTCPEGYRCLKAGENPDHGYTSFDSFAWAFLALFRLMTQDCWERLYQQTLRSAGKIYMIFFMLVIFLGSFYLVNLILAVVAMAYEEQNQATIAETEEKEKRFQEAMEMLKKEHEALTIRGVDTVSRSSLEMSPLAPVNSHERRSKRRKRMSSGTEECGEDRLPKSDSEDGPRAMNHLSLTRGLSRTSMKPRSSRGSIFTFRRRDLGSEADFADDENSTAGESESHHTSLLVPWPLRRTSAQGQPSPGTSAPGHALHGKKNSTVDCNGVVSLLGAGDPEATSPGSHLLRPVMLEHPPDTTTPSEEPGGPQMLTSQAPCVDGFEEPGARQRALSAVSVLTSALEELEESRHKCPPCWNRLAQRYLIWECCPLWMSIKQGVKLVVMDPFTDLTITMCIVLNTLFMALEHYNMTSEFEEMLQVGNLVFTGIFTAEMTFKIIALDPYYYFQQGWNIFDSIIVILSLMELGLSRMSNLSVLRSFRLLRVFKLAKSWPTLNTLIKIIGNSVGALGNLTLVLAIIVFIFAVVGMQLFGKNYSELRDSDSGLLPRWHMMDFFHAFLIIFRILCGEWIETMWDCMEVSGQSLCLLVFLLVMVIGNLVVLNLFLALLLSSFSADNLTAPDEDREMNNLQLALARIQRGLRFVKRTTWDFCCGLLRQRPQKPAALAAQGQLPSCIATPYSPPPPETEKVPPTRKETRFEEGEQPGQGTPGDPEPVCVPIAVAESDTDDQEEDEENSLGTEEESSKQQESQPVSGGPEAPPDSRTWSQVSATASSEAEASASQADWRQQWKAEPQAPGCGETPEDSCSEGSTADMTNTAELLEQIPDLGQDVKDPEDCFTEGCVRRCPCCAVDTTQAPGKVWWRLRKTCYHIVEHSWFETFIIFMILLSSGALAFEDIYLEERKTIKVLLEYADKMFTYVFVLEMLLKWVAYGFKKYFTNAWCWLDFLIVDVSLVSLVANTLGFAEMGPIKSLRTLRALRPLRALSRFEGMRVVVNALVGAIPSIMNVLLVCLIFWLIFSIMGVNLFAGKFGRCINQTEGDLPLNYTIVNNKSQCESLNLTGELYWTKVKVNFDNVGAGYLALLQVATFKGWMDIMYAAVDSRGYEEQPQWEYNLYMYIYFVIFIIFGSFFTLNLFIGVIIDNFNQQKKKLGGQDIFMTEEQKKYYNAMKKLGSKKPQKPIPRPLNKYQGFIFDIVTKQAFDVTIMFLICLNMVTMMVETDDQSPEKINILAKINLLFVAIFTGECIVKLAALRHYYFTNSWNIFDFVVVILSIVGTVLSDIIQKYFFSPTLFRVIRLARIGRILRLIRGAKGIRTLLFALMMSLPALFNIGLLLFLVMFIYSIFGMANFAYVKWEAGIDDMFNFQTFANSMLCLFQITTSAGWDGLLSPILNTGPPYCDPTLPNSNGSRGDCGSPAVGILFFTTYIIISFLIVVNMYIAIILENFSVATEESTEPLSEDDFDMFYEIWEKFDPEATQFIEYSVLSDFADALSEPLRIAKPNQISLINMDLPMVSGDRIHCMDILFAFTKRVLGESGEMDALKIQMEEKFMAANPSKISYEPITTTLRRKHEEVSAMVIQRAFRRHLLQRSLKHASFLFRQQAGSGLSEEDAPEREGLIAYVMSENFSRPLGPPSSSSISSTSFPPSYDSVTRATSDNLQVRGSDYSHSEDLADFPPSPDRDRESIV
Description: Inhibition of human heart sodium channel Nav1.5 by patch-clamp method

[15] = Volume of distribution at steady state in Wistar rat at 12 mg/kg. iv; assay type: ADME, organism-based; set-up: dose 12 mg/kg, route intravenous; conditions: in vivo, read-out: Vdss
[16] = tested on: Rattus norvegicus; assay: (§1) Volume of distribution at steady state in Wistar rat at 17 mg/kg. iv; assay type: ADME, organism-based; set-up: dose 17 mg/kg, route intravenous; conditions: in vivo
[17] = tested on: Rattus norvegicus; assay: (§2) Oral bioavailability in Wistar rat at 34 mg/kg. […]; assay type: ADME, organism-based; conditions: in vivo
[18] = tested on: Rattus norvegicus; assay: (§3) Half life in Wistar rat at 17 mg/kg. iv; assay type: ADME, organism-based; set-up: dose 17 mg/kg, route intravenous; conditions: in vivo
[19] = tested on: Rattus norvegicus; assay: Hemodynamic effect in intravenously dosed Sprague-Dawley rat with ischemia-induced arrhythmia assessed as dose producing 10% reduction in systemic blood pressure; assay type: functional
[20] = species on record: Canis familiaris; assay: Effect on Mongrel dog vagal atrial fibrillation model assessed as dose for conversion of atrial fibrillation to normal sinus rhythm; assay type: functional, Canis lupus familiaris, Cardiac atrium
[21] = species on record: Canis familiaris; assay: Effect on Mongrel dog vagal atrial fibrillation model assessed as conversion of atrial fibrillation to normal sinus rhythm; assay type: functional, organism-based; conditions: Canis lupus familiaris; Cardiac atrium
[22] = as §1; assay type: ADME, organism-based; set-up: dose 17 mg/kg, route intravenous; conditions: Wistar, in vivo, read-out: Vdss
[23] = as §3; assay type: ADME, organism-based; set-up: dose 17 mg/kg, route intravenous; conditions: Wistar, in vivo
[24] = Clearance in Wistar rat at 17 mg/kg. iv; assay type: ADME, organism-based; set-up: dose 17 mg/kg, route intravenous; conditions: in vivo
[25] = as §2; assay type: ADME, organism-based; conditions: Wistar, in vivo, oral

Row | Structure (SMILES) | Activity [1] [µmol/kg] | Activity [2] | IC50 [3] [µM] | IC50 [4] [µM] | half-life [5] [h] | Activity [6] | Activity [7] | ED50 [8] [µmol/kg/min] | bioavailability [9] [%] | IC50 [10] [µM] | Activity [11] [µmol/kg] | clearance [12] [mL/min/kg] | LD50 [13] [µmol/kg] | IC50 [14] [µM] | Vd [15] [L/kg] | F [17] [%] | Vd [22] [L/kg] | half-life [23] [h] | clearance [24] [mL/min/kg] | other results
1 | c1ccc2c(CCO[C@@H]3CCCC[C@H]3N3CCOCC3)cccc2c1 | 93 | inactive | 17 | 1.3 | 6.5 | inactive | Active | 0.8 | 4 | 3.2 | 8 | 50.1 | 42 | 4 | 29 | – | – | – | – | –
2 | O=C1CCN([C@@H]2CCCC[C@H]2OCCc2cccc3ccccc23)C1 (stereo in doubt; 40) | 193 | – | 11 | 5.9 | – | – | – | 1.2 | – | 6 | – | – | – | 11 | – | 6 | – | – | – | Vdss [16]: 8.3 L/kg; t1/2 [18]: 3.8 h
3 | CCCCc1oc2ccccc2c1C(=O)c1cc(I)c(OCCN(CC)CC)c(I)c1 [AMIODARONE] | – | – | – | – | – | – | – | – | – | – | – | – | – | – | – | – | – | – | – | Activity [19]: 4 µmol/kg/min
4 | Clc1ccc(CCO[C@@H]2CCCC[C@H]2N2CCOCC2)cc1Cl | 118 | inactive | 11 | 3.6 | 4.5 | inactive | Active | 1.5 | 7 | 2.4 | 10 | 48.5 | 228 | 15 | 19 | – | – | – | – | Activity [20]: 17 µmol/kg; Activity [21]: Active
5 | O=C1CCN([C@@H]2CCCC[C@H]2OCCc2cccc3ccccc23)C1 (stereo in doubt; 26) | 225 | – | 8.9 | 4.3 | – | – | – | 0.4 | – | 2.8 | – | – | 227 | 25 | – | 58 | 4.5 | 6.3 | 38.7 | –
6 | O=C1CCN([C@H]2CCCC[C@@H]2OCCc2cccc3ccccc23)C1 | 150 | – | 9 | 7.7 | – | – | – | 1.9 | – | 8 | – | – | – | 13 | – | – | 2.6 | 1 | 30.2 | bioavailability [25]: 32%
